# Results reported in publication PMC9065348 (Frontiers in Pharmacology, 2022).
# Where two headings read alike, the source gives them in different places.
# Legend:
# P-gp [1] = settings: Sprague-Dawley rats; ref Qin et al. (2013); cited from earlier work
# CYP3A4 [2] = settings: Sprague-Dawley rats; ref Qin et al. (2013); cited from earlier work
# CYP3A4 [3] = biological target: CYP3A4 (Homo sapiens, UniProt P08684); design: method as in Wan et al. (2010); settings: HepG2; ref Wan et al. (2010); cited from earlier work
# Chain of CYP3A4 (Homo sapiens, UniProt P08684) (P08684 whole entry): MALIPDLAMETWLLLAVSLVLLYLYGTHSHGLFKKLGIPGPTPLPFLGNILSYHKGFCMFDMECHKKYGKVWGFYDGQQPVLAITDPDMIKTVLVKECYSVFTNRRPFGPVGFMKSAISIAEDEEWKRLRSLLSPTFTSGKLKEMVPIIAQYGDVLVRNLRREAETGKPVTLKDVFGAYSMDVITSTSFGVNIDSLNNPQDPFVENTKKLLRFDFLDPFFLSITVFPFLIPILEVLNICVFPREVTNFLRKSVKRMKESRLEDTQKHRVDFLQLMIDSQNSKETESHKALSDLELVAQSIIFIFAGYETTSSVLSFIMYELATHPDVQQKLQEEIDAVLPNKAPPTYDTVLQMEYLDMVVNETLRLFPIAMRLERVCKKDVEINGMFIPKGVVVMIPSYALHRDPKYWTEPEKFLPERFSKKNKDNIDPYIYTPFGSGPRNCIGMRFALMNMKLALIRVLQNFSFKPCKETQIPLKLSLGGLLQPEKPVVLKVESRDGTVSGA
# P-gp [4] = test system: P-gp; design: method as in Wan et al. (2010); settings: HepG2; ref Wan et al. (2010); cited from earlier work
# CYP3A4 [5] = test system: CYP3A4; design: method as in Li et al. (2012); settings: Rat hepatic microsomes; ref Li et al. (2012); cited from earlier work
# [6] = Pharmacokinetics of LOS and EXP3174 in the hypertension rat model (LC-MS); assay type: in vivo, Wistar rats; settings: hypertensive rats (L-NAME); for AUC(0-inf) / AUC(0-t) / Cmax / MRT / Tmax / half-life: Wistar, rat, plasma, po, 10 mg/kg/day
# Method: All samples were centrifuged at 3,000 rpm for 10 min, and the upper plasma was collected for Liquid Chromatography Mass Spectrometry (LC-MS) analysis. The LOS and EXP3174 in rat serum were quantitatively determined by a validated LC-MS method. The LC-MS system contained a Q/Exactive Quadrupole/Electrostatic Field Track Well High Resolution Mass Spectrometer (Thermo Fisher Scientific, Waltham, MA, United States) and a Dionex Ultimate 3,000 High-pressure liquid chromatography (Dionex, Subsidiary, CA, United States) system equipped with an electro-spray ionization source. […] The mobile phase included 0.1% formic acid aqueous solution (C) and acetonitrile (D) at a flow rate of 0.3 ml/min. The proportion of phase B in the mobile phase was adjusted from 40 to 5% at 0-2 min, 5% at 2-4 min, 40% at 4-5 min. The parameters of mass spectrometry for each analyte were shown in Supplementary Figure S1 . The collected data were analyzed through Xcalibur 4.1 software. The serum drug concentration data in each sample were obtained by calculation. The pharmacokinetic parameters corresponding to each rat were calculated using the “non-compartmental model” of the “PK solution 2.0TM (Summit Research Services, United States)” pharmacokinetic software. The half-life (t 1/2 ), peak drug concentration (C max), peak time (T max), the area under the plasma concentration-time curve (AUC) from time zero to the time of the last measurable plasma concentration (AUC 0-t ), AUC from time zero to infinity (AUC 0-∞ ), mean residence time (MRT), clearance (CL), apparent volume of distribution (V d ), and relative bioavailability (Frel) were calculated.
# [7] = Pharmacokinetics of LOS and EXP3174 in non-hypertensive Wistar rats (LC-MS); assay type: in vivo; settings: Wistar rats without L-NAME; for AUC(0-inf) / AUC(0-t) / Cmax / MRT / Tmax / half-life: rat, serum, po
# Method: All groups were treated for 2 weeks and the blood collection time and methods of serum management were the same as those mentioned above. The LOS and EXP3174 in rat serum were quantitatively determined by a validated LC-MS method. The LC-MS system contained a Q/Exactive Quadrupole/Electrostatic Field Track Well High Resolution Mass Spectrometer (Thermo Fisher Scientific, Waltham, MA, United States) and a Dionex Ultimate 3,000 High-pressure liquid chromatography (Dionex, Subsidiary, CA, United States) system equipped with an electro-spray ionization source. […] The mobile phase included 0.1% formic acid aqueous solution (C) and acetonitrile (D) at a flow rate of 0.3 ml/min. The proportion of phase B in the mobile phase was adjusted from 40 to 5% at 0–2 min, 5% at 2–4 min, 40% at 4–5 min. The parameters of mass spectrometry for each analyte were shown in Supplementary Figure S1 . The collected data were analyzed through Xcalibur 4.1 software. The serum drug concentration data in each sample were obtained by calculation. The pharmacokinetic parameters corresponding to each rat were calculated using the “non-compartmental model” of the “PK solution 2.0TM (Summit Research Services, United States)” pharmacokinetic software. The half-life (t 1/2 ), peak drug concentration (C max), peak time (T max), the area under the plasma concentration-time curve (AUC) from time zero to the time of the last measurable plasma concentration (AUC 0-t ), AUC from time zero to infinity (AUC 0-∞ ), mean residence time (MRT), clearance (CL), apparent volume of distribution (V d ), and relative bioavailability (Frel) were calculated.
# [8] = design: method as in Sica et al., 2005; Burnier and Wuerzner, 2011; settings: ref Sica et al., 2005; Burnier and Wuerzner, 2011; cited from earlier work
# [9] = test system: hypertension rat model established by L-NAME; assay: Antihypertensive efficacy (tail artery blood pressure) in L-NAME hypertension rat model; assay type: in vivo, Wistar rats; settings: vs model group; 2 weeks treatment; SMI 6 ml/kg/d tail vein (SMI-H), LOS 10 mg/kg/d intragastric
# Method: A total of 48 Wistar rats were treated with L-NAME (60 mg/kg·d^-1) intragastrically for 4 weeks ([[…] al., 2003]; [[…] et al., 2002]; [Ahad et al., 2020a]). Systolic blood pressure (SBP) ≥140 mmHg was considered to be a successful hypertension model and was used to maintain L-NAME treatment until animal death. The blood pressure measurement method was performed as described in previous literature studies and the blood pressure of each rat was determined by the average of 5 measurements by a non-invasive rat tail sphygmomanometer (BP-2006A, Beijing Softron Biotechnology Co., Ltd.) ([Gillis et al., 2020]; [Dias et al., 2021]). This experimental protocol was approved by the Animal Care and Use Committee of Shanghai University of Traditional Chinese Medicine. A total of 36 hypertensive rats and 6 normal rats were included in this experiment. […] A total of 6 normal rats were assigned to a blank group without any treatment. Following the treatment of the rats for 2 weeks, the blood pressure of their tail artery was measured.
# [10] = cited from earlier work
# [11] = test system: hypertension rat model established with L-NAME; design: method as in Ahad et al., 2020b; settings: within 2 h following 10 mg kg^−1 LOS; rat model after 2 weeks L-NAME; ref Ahad et al., 2020b; cited from earlier work
# CYP2C9 = assay: Western blot of rat liver tissue, CYP2C9 protein expression; assay type: in vivo; settings: liver of hypertensive rats; comparison between all groups; p > 0.05
# Excerpt: The immunoreactive bands were detected by chemiluminescence.
# [12] = LOS 10 mg/kg/d ig + SMI 2 ml/kg/d tail vein (SMI-L+LOS group)
# [13] = LOS 10 mg/kg/d ig + SMI 4 ml/kg/d tail vein (SMI-M+LOS group)
# [14] = LOS 10 mg/kg/d ig + SMI 6 ml/kg/d tail vein (SMI-H+LOS group)
# [15] = LOS 10 mg/kg/d ig alone (LOS group)
# [16] = LOS 10 mg/kg/d ig alone (BLANK + LOS group)
# [17] = LOS 10 mg/kg/d ig + SMI 6 ml/kg/d tail vein (BLANK + SMI-H+LOS group)
compound,measurement,setting,value
COc1cc2c(c(OC)c1OC)-c1c(cc(OC)c(OC)c1OC)C[C@](C)(O)[C@@H](C)C2 [schisandrol A],Effects on P-Gp,P-gp [1],Inhibition
same,Effects on CYP3A4,CYP3A4 [2],Inhibition
same,Effects on CYP3A4,CYP3A4 [3],Inhibition
same,Effects on P-Gp,P-gp [4],Inhibition
COc1cc2c(c(OC)c1OC)-c1c(cc(OC)c(OC)c1OC)C[C@H](C)[C@H](C)C2 [Schisandrin A],Effects on CYP3A4,CYP3A4 [5],Inhibition
"CCCCc1nc(Cl)c(C(=O)O)n1Cc1ccc(-c2ccccc2-c2nn[nH]n2)cc1 [EXP3174, losartan carboxylic acid]",AUC(0-inf),[6]; [12],1280 ng·h/mL
same,AUC(0-t),[6]; [12],1180 ng·h/mL
same,Cmax,[6]; [12],133 ± 42.8 ng/mL
same,MRT,[6]; [12],9.5 ± 1.8 h
same,Tmax,[6]; [12],4.8 ± 1.1 h
same,half-life,[6]; [12],6.67 ± 1.34 h
same,AUC(0-inf),[6]; [13],1500 ng·h/mL
same,AUC(0-t),[6]; [13],1380 ng·h/mL
same,Cmax,[6]; [13],123 ± 44.6 ng/mL
same,MRT,[6]; [13],11.4 ± 1.62 h
same,Tmax,[6]; [13],5.33 ± 1.03 h
same,half-life,[6]; [13],6.59 ± 1.44 h
same,AUC(0-inf),[6]; [14],1380 ng·h/mL
same,Cmax,[6]; [14],81.2 ± 8.14 ng/mL
same,MRT,[6]; [14],13.3 ± 2.66 h
same,Tmax,[6]; [14],6 ± 1.26 h
same,half-life,[6]; [14],7.31 ± 1.62 h
same,AUC(0-inf),[6]; [15],1300 ng·h/mL
same,AUC(0-t),[6]; [15],1160 ng·h/mL
same,Cmax,[6]; [15],119 ± 36.4 ng/mL
same,MRT,[6]; [15],11.2 ± 2.34 h
same,Tmax,[6]; [15],4.33 ± 0.82 h
same,half-life,[6]; [15],6.76 ± 1.45 h
same,CL,[6]; [12],"23,408.16 ± 11,602.26 ml/h/kg"
same,Vd,[6]; [12],"226,676.52 ± 129,635.61 ml/kg"
same,CL,[6]; [13],"17,618.36 ± 4346.02 ml/h/kg"
same,Vd,[6]; [13],"159,469.35 ± 65,037.84 ml/kg"
same,CL,[6]; [14],"18,577.68 ± 3,249.85 ml/h/kg"
same,Vd,[6]; [14],"188,473.60 ± 36,260.16 ml/kg"
same,CL,[6]; [15],"19,842.49 ± 3,602.55 ml/h/kg"
same,Vd,[6]; [15],"175,713.60 ± 57,295.84 ml/kg"
same,AUC(0-inf),[7]; [16],1170 ng·h/mL
same,AUC(0-t),[7]; [16],1020 ng·h/mL
same,Cmax,[7]; [16],115 ± 12.1 ng/mL
same,MRT,[7]; [16],9.77 ± 0.26 h
same,Tmax,[7]; [16],5.33 ± 1.03 h
same,half-life,[7]; [16],6.5 ± 1.52 h
same,antihypertensive potency relative to losartan,[8],10–40 times
"CCCCc1nc(Cl)c(CO)n1Cc1ccc(-c2ccccc2-c2nn[nH]n2)cc1 [LOS, losartan potassium]",AUC(0-inf),[6]; [12],1210 ng·h/mL
same,AUC(0-t),[6]; [12],1110 ng·h/mL
same,Cmax,[6]; [12],125 ± 53.6 ng/mL
same,MRT,[6]; [12],8.54 ± 1.8 h
same,Tmax,[6]; [12],2.2 ± 0.84 h
same,half-life,[6]; [12],6.74 ± 0.64 h
same,AUC(0-inf),[6]; [13],1430 ng·h/mL
same,AUC(0-t),[6]; [13],1250 ng·h/mL
same,Cmax,[6]; [13],132 ± 35 ng/mL
same,MRT,[6]; [13],11.3 ± 2.22 h
same,Tmax,[6]; [13],1.5 ± 0.55 h
same,half-life,[6]; [13],8.41 ± 1.43 h
same,AUC(0-inf),[6]; [14],1420 ng·h/mL
same,AUC(0-t),[6]; [14],1240 ng·h/mL
same,Cmax,[6]; [14],156 ± 64.1 ng/mL
same,MRT,[6]; [14],12.1 ± 1.02 h
same,Tmax,[6]; [14],2.33 ± 0.52 h
same,half-life,[6]; [14],9.92 ± 0.96 h
same,AUC(0-inf),[6]; [15],841 ± 232 ng·h/mL
same,AUC(0-t),[6]; [15],787 ± 213 ng·h/mL
same,Cmax,[6]; [15],112 ± 41.7 ng/mL
same,MRT,[6]; [15],8.18 ± 0.89 h
same,Tmax,[6]; [15],2 ± 0.89 h
same,half-life,[6]; [15],6.19 ± 0.43 h
same,CL,[6]; [12],"27,497.47 ± 14,702.73 ml/h/kg"
same,Vd,[6]; [12],"264,405.76 ± 142,122.69 ml/kg"
same,CL,[6]; [13],"17,964.40 ± 3,185.66 ml/h/kg"
same,Vd,[6]; [13],"217,016.60 ± 45,076.20 ml/kg"
same,CL,[6]; [14],"19,127.96 ± 5,549.27 ml/h/kg"
same,Vd,[6]; [14],"277,463.55 ± 98,140.99 ml/kg"
same,CL,[6]; [15],"32,042.39 ± 10,551.59 ml/h/kg"
same,Vd,[6]; [15],"282,441.65 ± 73,729.85 ml/kg"
same,increase of AUC 0-t compared with LOS group,[6]; SMI-H + LOS group (SMI 6 ml/kg/d),58.1%
same,decrease in DBP,[9],12.14%
same,decrease in MAP,[9],11.92%
same,decrease in SBP,[9],6.32%
same,increase of AUC 0-t of LOS,"[10]; with Ginkgo leaf tablets, ref Dong et al., 2018",70%
same,increase of AUC 0-t of LOS,"[10]; with Glimepirea, ref Chen et al., 2015",11.18%
same,increase of AUC of LOS,"[10]; with licochalcon A, ref Choi et al., 2013",33.38%
same,decrease in SBP,[11],14.7%
same,CL,[7]; [17],"5,327.27 ± 1,010.94 ml/h/kg"
same,Vd,[7]; [17],"67,493.75 ± 17,745.97 ml/kg"
same,CL,[7]; [16],"10,392.48 ± 1,296.50 ml/h/kg"
same,Vd,[7]; [16],"90,573.23 ± 13,394.06 ml/kg"
same,AUC(0-inf),[7]; [16],975 ± 121 ng·h/mL
same,AUC(0-t),[7]; [16],911 ± 115 ng·h/mL
same,Cmax,[7]; [16],108 ± 6.26 ng/mL
same,MRT,[7]; [16],8.6 ± 0.54 h
same,Tmax,[7]; [16],1.67 ± 0.52 h
same,half-life,[7]; [16],6.03 ± 0.19 h
same,CYP2C9 expression levels,CYP2C9,no significant differences
